IC50 and Ki data for 6 compounds are collected here from ChEMBL document CHEMBL1909046, “DrugMatrix in vitro pharmacology data”.

The nature of series [1]: DRUGMATRIX: Serotonin (5-Hydroxytryptamine) 5-HT3 radioligand binding (ligand: [3H] GR-65630). In kind it is cell membranes, Membrane. The note with it: hek293; Not Active = under 50% inhibition at 10 µM.
Series [2] deals with 5-hydroxytryptamine receptor 6 (Homo sapiens, UniProt P50406). Format: cell membranes, HeLa, Membrane. The note with it: hela.
Series [3] has as its target T1, Alpha-2A adrenergic receptor (Homo sapiens, UniProt P08913). Also: in other assays of this panel Not Active means under 50% inhibition at 10 µM.
T1 sequence (P08913 whole entry): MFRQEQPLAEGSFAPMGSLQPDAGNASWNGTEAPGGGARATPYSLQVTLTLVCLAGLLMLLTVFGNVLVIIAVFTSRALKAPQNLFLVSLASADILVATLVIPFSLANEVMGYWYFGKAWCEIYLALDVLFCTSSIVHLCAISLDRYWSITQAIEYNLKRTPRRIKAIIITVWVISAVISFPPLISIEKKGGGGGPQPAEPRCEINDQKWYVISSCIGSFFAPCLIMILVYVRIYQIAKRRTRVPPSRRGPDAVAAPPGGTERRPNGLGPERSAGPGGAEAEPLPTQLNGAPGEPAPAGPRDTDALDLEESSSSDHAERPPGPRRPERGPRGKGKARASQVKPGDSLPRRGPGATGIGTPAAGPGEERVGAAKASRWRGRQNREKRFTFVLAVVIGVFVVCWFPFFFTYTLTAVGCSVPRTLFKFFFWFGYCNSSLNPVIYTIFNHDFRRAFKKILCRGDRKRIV
Format: cell membranes, Sf9, Membrane. The note with it: sf9.

Series [4] addresses Protein phosphatase 3 catalytic subunit alpha (Homo sapiens, UniProt Q08209). Set-up: species or system Escherichia coli.
A short description of series [5]: DRUGMATRIX: Phorbol Ester radioligand binding (ligand: [3H] PDBu). Format: cell membranes, Mus musculus, ICR, Brain, Membrane. The note with it: Not Active = under 50% inhibition at 10 µM.
The target in series [6] is T2, C-X-C chemokine receptor type 1 (Homo sapiens, UniProt P25024). Also: in other assays of this panel Not Active means under 50% inhibition at 10 µM.
T2 sequence (P25024 whole entry): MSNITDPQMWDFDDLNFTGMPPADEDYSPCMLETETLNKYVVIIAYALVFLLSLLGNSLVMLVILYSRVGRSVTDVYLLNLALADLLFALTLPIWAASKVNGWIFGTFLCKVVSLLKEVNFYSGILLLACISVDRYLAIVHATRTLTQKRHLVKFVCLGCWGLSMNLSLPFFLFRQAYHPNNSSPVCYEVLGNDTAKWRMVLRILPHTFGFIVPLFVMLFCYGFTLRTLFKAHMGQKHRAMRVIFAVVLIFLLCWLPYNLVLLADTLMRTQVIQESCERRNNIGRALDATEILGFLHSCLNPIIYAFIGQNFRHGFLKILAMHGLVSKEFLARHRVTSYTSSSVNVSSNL

Series [7] has as its target C-C chemokine receptor type 5 (Homo sapiens, UniProt P51681). Format: cell membranes, Membrane. The note with it: hek293. Also: in other assays of this panel Not Active means under 50% inhibition at 10 µM.
In another series the target is Melanocortin receptor 5 (Homo sapiens, UniProt P33032). In kind it is cell membranes, HEK293, Membrane. The note with it: hek293. Also: in other assays of this panel Not Active means under 50% inhibition at 10 µM.
The target of series [8] is T3, Polyunsaturated fatty acid lipoxygenase ALOX15 (Oryctolagus cuniculus, UniProt P12530).
T3 sequence (P12530 whole entry): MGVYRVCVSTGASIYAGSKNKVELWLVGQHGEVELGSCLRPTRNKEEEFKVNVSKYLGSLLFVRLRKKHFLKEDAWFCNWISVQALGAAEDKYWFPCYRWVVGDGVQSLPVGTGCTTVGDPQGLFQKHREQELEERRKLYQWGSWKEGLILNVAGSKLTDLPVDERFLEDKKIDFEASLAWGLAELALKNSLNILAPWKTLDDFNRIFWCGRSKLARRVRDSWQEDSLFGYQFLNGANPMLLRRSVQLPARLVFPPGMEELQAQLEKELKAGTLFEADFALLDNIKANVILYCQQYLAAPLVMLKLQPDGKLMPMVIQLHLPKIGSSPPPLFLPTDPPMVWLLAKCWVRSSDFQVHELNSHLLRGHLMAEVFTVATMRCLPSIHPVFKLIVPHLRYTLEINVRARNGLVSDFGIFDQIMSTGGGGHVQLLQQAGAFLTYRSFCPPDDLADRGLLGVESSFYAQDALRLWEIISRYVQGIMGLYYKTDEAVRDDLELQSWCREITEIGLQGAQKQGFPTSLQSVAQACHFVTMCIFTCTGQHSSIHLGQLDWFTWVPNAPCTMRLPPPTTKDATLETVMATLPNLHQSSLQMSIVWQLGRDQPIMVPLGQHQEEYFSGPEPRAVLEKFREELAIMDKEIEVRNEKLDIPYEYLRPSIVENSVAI
Briefly: biochemical. In kind it is tissue-based, Reticulocytes. The note with it: reticulocytes.

The nature of series [9]: DRUGMATRIX: Calcium Channel Type L, Phenylalkylamine radioligand binding (ligand: [3H] (-)-Desmethoxyverapamil (D-888)). Format: cell membranes, Rattus norvegicus, Wistar, Brain, Membrane. The note with it: Not Active = under 50% inhibition at 10 µM.
In the next series the target is Cytochrome P450 2C9 (Homo sapiens, UniProt P11712). The note with it: bti-tn-5b1-4. Also: in other assays of this panel Not Active means under 50% inhibition at 10 µM.
Series [10] concerns the target Tyrosine-protein kinase Lck (Homo sapiens, UniProt P06239). The experiment in a line: DRUGMATRIX: Protein Tyrosine Kinase, LCK enzyme inhibition (substrate: Poly(Glu:Tyr)). Format: cell-based, Insect cells. The note with it: insect cells; Not Active = under 50% inhibition at 10 µM.
A further series deals with Melanocortin receptor 3 (Homo sapiens, UniProt P41968). In kind it is cell membranes, Membrane. The note with it: hek293.
The target in the next series is T4, Estrogen receptor (Homo sapiens, UniProt P03372). Also: in other assays of this panel Not Active means under 50% inhibition at 10 µM.
T4 sequence (P03372 whole entry): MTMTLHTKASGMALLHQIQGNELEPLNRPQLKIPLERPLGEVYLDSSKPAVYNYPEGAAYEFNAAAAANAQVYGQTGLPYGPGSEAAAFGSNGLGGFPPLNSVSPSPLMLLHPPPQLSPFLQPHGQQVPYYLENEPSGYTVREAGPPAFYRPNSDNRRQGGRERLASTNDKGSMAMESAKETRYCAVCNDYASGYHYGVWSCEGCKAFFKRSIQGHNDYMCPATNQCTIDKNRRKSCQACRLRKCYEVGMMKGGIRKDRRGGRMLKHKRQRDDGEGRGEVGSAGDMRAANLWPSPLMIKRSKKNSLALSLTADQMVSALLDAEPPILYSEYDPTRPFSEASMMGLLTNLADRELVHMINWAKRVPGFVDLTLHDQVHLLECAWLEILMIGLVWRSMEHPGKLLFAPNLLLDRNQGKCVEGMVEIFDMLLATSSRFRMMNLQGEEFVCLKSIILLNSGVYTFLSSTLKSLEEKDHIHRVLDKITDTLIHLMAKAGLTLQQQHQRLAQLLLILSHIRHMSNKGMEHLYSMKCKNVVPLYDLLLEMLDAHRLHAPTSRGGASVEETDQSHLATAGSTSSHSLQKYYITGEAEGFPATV
The note with it: sf9.

Sequence of C-C chemokine receptor type 5 (P51681 whole entry): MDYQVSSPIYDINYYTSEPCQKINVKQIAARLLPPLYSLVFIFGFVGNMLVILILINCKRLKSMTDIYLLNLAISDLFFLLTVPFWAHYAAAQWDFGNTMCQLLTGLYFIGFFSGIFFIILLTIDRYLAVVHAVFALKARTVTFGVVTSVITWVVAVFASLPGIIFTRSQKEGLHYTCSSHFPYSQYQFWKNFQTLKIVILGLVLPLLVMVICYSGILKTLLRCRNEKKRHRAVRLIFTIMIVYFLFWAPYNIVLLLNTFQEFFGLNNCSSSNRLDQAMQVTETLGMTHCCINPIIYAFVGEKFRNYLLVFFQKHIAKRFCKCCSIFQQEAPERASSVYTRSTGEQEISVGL
Sequence of 5-hydroxytryptamine receptor 6 (P50406 whole entry): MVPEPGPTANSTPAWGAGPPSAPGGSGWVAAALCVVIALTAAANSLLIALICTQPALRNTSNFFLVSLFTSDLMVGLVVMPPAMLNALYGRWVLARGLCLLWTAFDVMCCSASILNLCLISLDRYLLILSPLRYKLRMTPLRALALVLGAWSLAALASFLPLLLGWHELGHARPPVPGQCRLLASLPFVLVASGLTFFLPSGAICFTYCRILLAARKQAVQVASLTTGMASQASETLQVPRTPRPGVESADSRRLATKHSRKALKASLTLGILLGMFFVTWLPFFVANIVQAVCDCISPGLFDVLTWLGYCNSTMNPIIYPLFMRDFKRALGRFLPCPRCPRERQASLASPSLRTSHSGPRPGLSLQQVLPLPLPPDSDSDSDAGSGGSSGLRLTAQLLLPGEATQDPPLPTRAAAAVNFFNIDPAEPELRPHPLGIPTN
Sequence of Tyrosine-protein kinase Lck (P06239 whole entry): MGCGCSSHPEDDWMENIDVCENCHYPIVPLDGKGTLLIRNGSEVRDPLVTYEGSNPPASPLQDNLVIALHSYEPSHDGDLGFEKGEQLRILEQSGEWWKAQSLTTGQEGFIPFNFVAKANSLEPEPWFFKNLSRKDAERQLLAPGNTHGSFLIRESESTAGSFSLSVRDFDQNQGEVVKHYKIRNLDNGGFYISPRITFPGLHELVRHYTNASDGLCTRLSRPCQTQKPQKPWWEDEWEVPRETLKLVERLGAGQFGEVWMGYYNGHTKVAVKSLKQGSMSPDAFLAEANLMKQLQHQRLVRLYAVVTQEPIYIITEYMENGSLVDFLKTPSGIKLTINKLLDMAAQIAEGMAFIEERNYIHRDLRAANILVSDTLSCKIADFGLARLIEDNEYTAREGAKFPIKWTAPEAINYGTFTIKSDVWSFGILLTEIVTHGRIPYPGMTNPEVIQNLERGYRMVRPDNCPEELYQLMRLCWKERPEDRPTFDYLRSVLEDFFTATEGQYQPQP
Sequence of Cytochrome P450 2C9 (P11712 whole entry): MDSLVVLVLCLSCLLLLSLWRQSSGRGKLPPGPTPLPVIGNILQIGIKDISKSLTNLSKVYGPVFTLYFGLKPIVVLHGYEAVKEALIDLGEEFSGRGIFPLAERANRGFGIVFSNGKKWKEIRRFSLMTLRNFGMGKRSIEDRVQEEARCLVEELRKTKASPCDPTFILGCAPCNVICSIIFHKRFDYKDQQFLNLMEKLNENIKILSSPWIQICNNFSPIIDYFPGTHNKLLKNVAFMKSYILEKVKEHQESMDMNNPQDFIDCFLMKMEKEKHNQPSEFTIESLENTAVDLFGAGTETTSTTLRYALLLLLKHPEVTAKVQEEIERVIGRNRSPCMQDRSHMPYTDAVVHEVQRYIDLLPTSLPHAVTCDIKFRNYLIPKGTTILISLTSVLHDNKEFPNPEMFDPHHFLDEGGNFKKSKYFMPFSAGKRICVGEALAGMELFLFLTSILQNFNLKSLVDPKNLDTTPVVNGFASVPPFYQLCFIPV
Sequence of Melanocortin receptor 3 (P41968 whole entry): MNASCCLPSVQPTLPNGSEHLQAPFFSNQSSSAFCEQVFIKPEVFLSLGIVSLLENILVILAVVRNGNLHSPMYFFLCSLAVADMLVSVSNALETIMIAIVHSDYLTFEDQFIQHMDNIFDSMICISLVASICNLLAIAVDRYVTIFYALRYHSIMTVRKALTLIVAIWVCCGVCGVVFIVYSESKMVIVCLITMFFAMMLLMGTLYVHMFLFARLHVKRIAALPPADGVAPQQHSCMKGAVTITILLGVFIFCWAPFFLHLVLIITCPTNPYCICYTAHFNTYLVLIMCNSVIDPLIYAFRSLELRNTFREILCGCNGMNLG
Sequence of Melanocortin receptor 5 (P33032 whole entry): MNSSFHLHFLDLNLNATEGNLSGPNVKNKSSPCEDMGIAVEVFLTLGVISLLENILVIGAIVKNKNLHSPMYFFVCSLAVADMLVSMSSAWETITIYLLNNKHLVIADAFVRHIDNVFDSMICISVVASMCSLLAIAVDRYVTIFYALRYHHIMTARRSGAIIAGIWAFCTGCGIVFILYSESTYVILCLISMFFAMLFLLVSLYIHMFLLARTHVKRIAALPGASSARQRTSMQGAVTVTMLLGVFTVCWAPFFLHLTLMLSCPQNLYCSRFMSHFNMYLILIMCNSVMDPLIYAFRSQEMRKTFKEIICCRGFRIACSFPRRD

The term IC50 denotes the point on the concentration scale where inhibition reaches its midpoint. What is called Ki is a dissociation constant, usually derived from enzyme kinetics or from competition with a known ligand. As to `Fc1ccc([C@@H]2CCNC[C@H]2COc2ccc3c(c2)OCO3)cc1` [PAROXETINE], the half-maximal inhibitory concentration (IC50) entry in [1], in [2], in series [3], in series [4], in series [5] and in series [6] was “Not Active” in each case. Besides, the IC50 entry is “Not Active” in series [7]; “Not Active” on Melanocortin receptor 5; “Not Active” in series [8]; 747 nM in series [9] (read-out: IC50); “Not Active” at Cytochrome P450 2C9; “Not Active” in [10]. The IC50 result against Melanocortin receptor 3 and against Estrogen receptor was “Not Active” in each case. Also, the inhibition constant (Ki) result was “Not Active” in [1], “Not Active” in series [5], 726 nM in series [9] (read-out: Ki) and “Not Active” at Cytochrome P450 2C9.

In the case of `CC(=O)CCCCn1c(=O)c2c(ncn2C)n(C)c1=O` [PENTOXIFYLLINE], the IC50 entry in series [1], in series [2], in [3], in series [4], in series [5] and in series [6] was “Not Active” each time. Besides, the IC50 result (in [7]; on Melanocortin receptor 5; in series [8]; in [9]; on Cytochrome P450 2C9; in series [10]) was “Not Active” in each case. In addition, the IC50 entry on Melanocortin receptor 3 and at Estrogen receptor was “Not Active” throughout. Besides, the Ki entry (in series [1]; in series [5]; in [9]; at Cytochrome P450 2C9) was “Not Active” each time.

For `CNC(=O)Oc1ccc2c(c1)[C@]1(C)CCN(C)[C@@H]1N2C` [PHYSOSTIGMINE], the IC50 result in series [1], in series [2], in series [3], in series [4], in series [5] and in [6] was “Not Active” in each case. Besides, the IC50 entry (in series [7]; against Melanocortin receptor 5; in series [8]; in series [9]; against Cytochrome P450 2C9; in [10]) was “Not Active” throughout. Moreover, the 50% inhibitory concentration (IC50) entry at Melanocortin receptor 3 and against Estrogen receptor was “Not Active” throughout. Also, the Ki entry (in series [1]; in [5]; in series [9]; at Cytochrome P450 2C9) was “Not Active” throughout.

Take `C=C(C)[C@@H]1[C@H]2OC(=O)[C@@H]1[C@]1(O)C[C@H]3O[C@]34C(=O)O[C@H]2[C@]14C` [PICROTOXININ]: the IC50 result in series [1], in [2], in [3], in series [4], in series [5] and in series [6] was “Not Active” throughout. Besides, the IC50 entry (in [7]; on Melanocortin receptor 5; in series [8]; in series [9]; against Cytochrome P450 2C9; in series [10]) was “Not Active” in each case. Moreover, the concentration for half-maximal inhibition (IC50) entry at Melanocortin receptor 3 and on Estrogen receptor was “Not Active” in each case. Further, the Ki entry (in series [1]; in series [5]; in series [9]; on Cytochrome P450 2C9) was “Not Active” throughout.

Turning to `CN1C(C(=O)Nc2ccccn2)=C(O)c2ccccc2S1(=O)=O` [PIROXICAM], the half-inhibitory concentration (IC50) result in series [1], in [2], in [3], in [4], in series [5] and in series [6] was “Not Active” throughout. For the same compound, the concentration for half-maximal inhibition (IC50) result (in series [7]; on Melanocortin receptor 5; in [8]; in [9]; against Cytochrome P450 2C9; in series [10]) was “Not Active” throughout. Further, the IC50 entry at Melanocortin receptor 3 and at Estrogen receptor was “Not Active” each time. The inhibition constant (Ki) result (in [1]; in series [5]; in [9]; on Cytochrome P450 2C9) was “Not Active” in each case.

Take `CCCc1cc(=O)[nH]c(=S)[nH]1` [PROPYLTHIOURACIL]: the IC50 entry in series [1], in series [2], in series [3], in series [4], in series [5] and in [6] was “Not Active” each time. In addition, the IC50 result (in series [7]; on Melanocortin receptor 5; in series [8]; in series [9]; at Cytochrome P450 2C9; in series [10]) was “Not Active” in each case. Moreover, the concentration for half-maximal inhibition (IC50) result at Melanocortin receptor 3 and on Estrogen receptor was “Not Active” throughout. Further, the inhibitory constant (Ki) result (in [1]; in series [5]; in series [9]; at Cytochrome P450 2C9) was “Not Active” in each case.
